In US4060606A (Leo Pharmaceutical Products Ltd. A/S, priority 1976, dated 1977) one finds IC50 data, which are given here for 14 compounds.

Values after ≈ are worked out from the molar mass of the structure shown.

Holding throughout (experiment): In vitro antibacterial activity, concentrations required for 50% inhibition
Common to all, as to type: cell-based

The test system of assay [1] is Staph. aureus Leo CC 178B. The following applies: Staphylococcus aureus, LEOCC178B. An excerpt: (§1) Now, however, it has been found, that the compounds of the present invention both in vitro and in vivo show interesting antimicrobial and pharmacokinetic properties. Thereby the compounds of the invention can be used in the treatment of bacterial infections in humans and animals.

The subject of a further assay is Strep. pyogenes Leo EC. The following applies: Streptococcus pyogenes.
Description: as §1

The subject of assay [2] is Bacteroides fragilis Leo JA2. The conditions noted are these: LEOJA2.
Description: as §1

In assay [3] the test system is Bacillus subtilis Leo KA3. The conditions noted are these: LEOKA3.
Description: as §1

The subject of the next assay is Strep. species Leo EG2.
Description: as §1

As usually defined, the IC50 is the concentration at which inhibition is half-maximal. Read a high IC50 as weaker potency. Consider `CC(C)=CCC/C(C(=O)O)=C1/[C@@H](SC(C)C)C[C@@]2(C)[C@H]1C[C@@H](O)[C@H]1[C@@]3(C)CC[C@@H](O)[C@@H](C)[C@@H]3CC[C@@]12C` [Example 1, 16-Deacetoxy-16β-isopropylthiofusidic acid], for which the IC50 came to 0.032 µg/mL (≈ 0.0601 µM) in assay [1]; 0.2 µg/mL (≈ 0.375 µM) in the assay with Strep. pyogenes Leo EC; 5 µg/mL (≈ 9.38 µM) in assay [2]; 0.02 µg/mL (≈ 0.0375 µM) in assay [3]; 1 µg/mL (≈ 1.88 µM) in the assay with Strep. species Leo EG2.

Turning to `CC(C)CCC/C(C(=O)O)=C1/[C@@H](SC(C)C)C[C@@]2(C)[C@H]1C[C@@H](O)[C@H]1[C@@]3(C)CC[C@@H](O)[C@@H](C)[C@@H]3CC[C@@]12C` [Example 11, 16-Deacetoxy-16β-isopropylthio-24,25-dihydrofusidic acid], the IC50 was 0.016 µg/mL (≈ 0.0299 µM) in assay [1]; 0.04 µg/mL (≈ 0.0748 µM) with Strep. pyogenes Leo EC; 4 µg/mL (≈ 7.48 µM) in assay [2]; 0.008 µg/mL (≈ 0.015 µM) in assay [3]; 0.1 µg/mL (≈ 0.187 µM) with Strep. species Leo EG2.

Turning to `CC(C)=CCC/C(C(=O)O)=C1/[C@@H](SC(C)C)C[C@@]2(C)[C@H]1CC(=O)[C@H]1[C@@]3(C)CC[C@@H](O)[C@@H](C)[C@@H]3CC[C@@]12C` [Example 32, 11-Keto-16-deacetoxy-16β-isopropylthiofusidic acid], the IC50 in assay [1] was determined as 0.02 µg/mL (≈ 0.0377 µM); with Strep. pyogenes Leo EC it was 0.2 µg/mL (≈ 0.377 µM); in assay [2], 3.2 µg/mL (≈ 6.03 µM); in assay [3] it was 0.02 µg/mL (≈ 0.0377 µM); in the assay on Strep. species Leo EG2, 0.63 µg/mL (≈ 1.19 µM).

Regarding `CC(C)CCC/C(C(=O)O)=C1/[C@@H](SC(C)C)C[C@@]2(C)[C@H]1CC(=O)[C@H]1[C@@]3(C)CC[C@@H](O)[C@@H](C)[C@@H]3CC[C@@]12C` [Example 33, 11-Keto-16-deacetoxy-16β-isopropylthio-24,25-dihydrofusidic acid], the IC50 in assay [1] was found to be 0.04 µg/mL (≈ 0.0751 µM); with Strep. pyogenes Leo EC, 0.32 µg/mL (≈ 0.601 µM); in assay [2], 2 µg/mL (≈ 3.75 µM); in assay [3], 0.05 µg/mL (≈ 0.0938 µM); in the assay with Strep. species Leo EG2 it was 0.79 µg/mL (≈ 1.48 µM).

As to `CC(C)=CCC/C(C(=O)O)=C1/[C@@H](SC(C)C)C[C@@]2(C)[C@H]1C[C@@H](O)[C@H]1[C@@]3(C)CCC(=O)[C@@H](C)[C@@H]3CC[C@@]12C` [Example 34, 3-Keto-16-deacetoxy-16β-isopropylthiofusidic acid], the IC50 was found to be 0.04 µg/mL (≈ 0.0754 µM) in assay [1]; 0.4 µg/mL (≈ 0.754 µM) in the assay with Strep. pyogenes Leo EC; 5 µg/mL (≈ 9.42 µM) in assay [2]; 0.05 µg/mL (≈ 0.0942 µM) in assay [3]; 1 µg/mL (≈ 1.88 µM) in the assay with Strep. species Leo EG2.

Consider `CC(C)=CCC/C(C(=O)O)=C1/[C@@H]([S+]([O-])C(C)C)C[C@@]2(C)[C@H]1C[C@@H](O)[C@H]1[C@@]3(C)CC[C@@H](O)[C@@H](C)[C@@H]3CC[C@@]12C` (stereo partly drawn) [Example 35, 16-deacetoxy-16β-isopropylsulfinylfusidic acid], for which the 50% inhibitory concentration (IC50) in assay [1] was determined as 0.05 µg/mL (≈ 0.0911 µM); in the assay with Strep. pyogenes Leo EC, 0.2 µg/mL (≈ 0.364 µM); in assay [2] it was 1.3 µg/mL (≈ 2.37 µM); in assay [3], 0.4 µg/mL (≈ 0.729 µM); in the assay with Strep. species Leo EG2, 0.32 µg/mL (≈ 0.583 µM).

Regarding `CC(C)CCC/C(C(=O)O)=C1/[C@@H]([S+]([O-])C(C)C)C[C@@]2(C)[C@H]1C[C@@H](O)[C@H]1[C@@]3(C)CC[C@@H](O)[C@@H](C)[C@@H]3CC[C@@]12C` (stereo partly drawn) [Example 42, 16-Deacetoxy-16β-isopropylsulfinyl-24,25-dihydrofusidic acid], the IC50 in assay [1] was 0.04 µg/mL (≈ 0.0726 µM); with Strep. pyogenes Leo EC it was 0.16 µg/mL (≈ 0.29 µM); in assay [2], 1.6 µg/mL (≈ 2.9 µM); in assay [3] it was 0.16 µg/mL (≈ 0.29 µM); with Strep. species Leo EG2 it was 0.5 µg/mL (≈ 0.908 µM).

With `CCO[C@H]1C[C@@]2(C)[C@@H](C[C@@H](O)[C@H]3[C@@]4(C)CC[C@@H](O)[C@@H](C)[C@@H]4CC[C@@]32C)/C1=C(\CCC=C(C)C)C(=O)O` [Example 46, 16-Deacetoxy-16β-ethoxyfusidic acid], the 50% inhibitory concentration (IC50) in assay [1] turned out to be 0.025 µg/mL (≈ 0.0497 µM); in the assay on Strep. pyogenes Leo EC, 1 µg/mL (≈ 1.99 µM); in assay [2], 1 µg/mL (≈ 1.99 µM); in assay [3] it was 0.05 µg/mL (≈ 0.0995 µM); with Strep. species Leo EG2, 5 µg/mL (≈ 9.95 µM).

Regarding `CC(C)=CCC/C(C(=O)O)=C1/[C@@H](OCC(F)(F)F)C[C@@]2(C)[C@H]1C[C@@H](O)[C@H]1[C@@]3(C)CC[C@@H](O)[C@@H](C)[C@@H]3CC[C@@]12C` [Example 48, 16-deacetoxy-16β-(2',2',2'-trifluoroethoxy)fusidic acid], the IC50 in assay [1] was 0.016 µg/mL (≈ 0.0287 µM); in the assay on Strep. pyogenes Leo EC it was 0.5 µg/mL (≈ 0.898 µM); in assay [2] it was 32 µg/mL (≈ 57.5 µM); in assay [3], 0.02 µg/mL (≈ 0.0359 µM); with Strep. species Leo EG2, 1 µg/mL (≈ 1.8 µM).

Regarding `CC(C)=CCC/C(C(=O)O)=C1/[C@@H](OCCF)C[C@@]2(C)[C@H]1C[C@@H](O)[C@H]1[C@@]3(C)CC[C@@H](O)[C@@H](C)[C@@H]3CC[C@@]12C` [Example 50, 16-Deacetoxy-16β-(2'-fluoroethoxy)fusidic acid], the IC50 in assay [1] was determined as 0.02 µg/mL (≈ 0.0384 µM); with Strep. pyogenes Leo EC, 0.63 µg/mL (≈ 1.21 µM); in assay [2] it was 0.32 µg/mL (≈ 0.615 µM); in assay [3] it was 0.05 µg/mL (≈ 0.096 µM); in the assay on Strep. species Leo EG2 it was 2.5 µg/mL (≈ 4.8 µM).

For the compound `CC(C)=CCC/C(C(=O)O)=C1/[C@@H](OC(CF)CF)C[C@@]2(C)[C@H]1C[C@@H](O)[C@H]1[C@@]3(C)CC[C@@H](O)[C@@H](C)[C@@H]3CC[C@@]12C` [Example 52], the IC50 stood at 0.025 µg/mL (≈ 0.0452 µM) in assay [1]; 0.5 µg/mL (≈ 0.905 µM) with Strep. pyogenes Leo EC; 0.63 µg/mL (≈ 1.14 µM) in assay [2]; 0.04 µg/mL (≈ 0.0724 µM) in assay [3]; 3.2 µg/mL (≈ 5.79 µM) with Strep. species Leo EG2.

For `CCO[C@H]1C[C@@]2(C)[C@@H](CC(=O)[C@H]3[C@@]4(C)CC[C@@H](O)[C@@H](C)[C@@H]4CC[C@@]32C)/C1=C(\CCC=C(C)C)C(=O)O` [Example 75, 11-Keto-16-deacetoxy-16β-ethoxyfusidic acid], the IC50 in assay [1] was determined as 0.02 µg/mL (≈ 0.0399 µM); in the assay on Strep. pyogenes Leo EC, 1 µg/mL (≈ 2 µM); in assay [2], 13 µg/mL (≈ 26 µM); in assay [3], 0.05 µg/mL (≈ 0.0999 µM); in the assay on Strep. species Leo EG2 it was 3.2 µg/mL (≈ 6.39 µM).

Regarding `CC(C)=CCC/C(C(=O)O)=C1/[C@@H](OCCF)C[C@@]2(C)[C@H]1CC(=O)[C@H]1[C@@]3(C)CC[C@@H](O)[C@@H](C)[C@@H]3CC[C@@]12C` [Example 76, 11-Keto-16-deacetoxy-16β-(2'-fluoroethoxy)fusidic acid], the IC50 in assay [1] is 0.025 µg/mL (≈ 0.0482 µM); in the assay on Strep. pyogenes Leo EC it was 1.6 µg/mL (≈ 3.08 µM); in assay [2] it was 2 µg/mL (≈ 3.86 µM); in assay [3] it was 0.032 µg/mL (≈ 0.0617 µM); with Strep. species Leo EG2, 4 µg/mL (≈ 7.71 µM).

Turning to `CC(=O)O[C@H]1C[C@@]2(C)[C@@H](C[C@@H](O)[C@H]3[C@@]4(C)CC[C@@H](O)[C@@H](C)[C@@H]4CC[C@@]32C)/C1=C(\CCC=C(C)C)C(=O)O` [Fusidic acid, reference compound], the IC50 in assay [1] worked out at 0.032 µg/mL (≈ 0.0619 µM); in the assay with Strep. pyogenes Leo EC it was 0.79 µg/mL (≈ 1.53 µM); in assay [2] it was 1.6 µg/mL (≈ 3.1 µM); in assay [3], 0.2 µg/mL (≈ 0.387 µM); with Strep. species Leo EG2 it was 1.6 µg/mL (≈ 3.1 µM).
